Assay results taken from patent US11179368B2, “Substituted indoline derivatives as dengue viral replication inhibitors” (JANSSEN PHARMACEUTICALS, INC., priority 2017, dated 2021).
Counter-ions that a name gives are not always drawn. Like-named read-outs stand apart in the source and are kept apart here.

Tests used:
DENV-2 16681 strain = test: DENV-2 antiviral assay (eGFP-labeled virus in Vero cells); assay type: cell-based, Dengue virus; conditions: for EC50: DENV-2 16681 eGFP, Vero cells, MOI 0.5, 3 days; for SI: SI=CC50/EC50, DENV-2 antiviral assay
DENV-1 strain TC974#666 = test: Tetravalent RT-qPCR assay, serotype 1; assay type: cell-based, Dengue virus; conditions: for EC50: Dengue virus, DENV1, 72 h, RT-qPCR serotype 1 TC974#666, Vero cells, day 3; for SI: RT-qPCR serotype 1 TC974#666
Experimental: (§1) The antiviral activity of the compounds of the invention was tested against DENV-1 strain TC974#666 (NCPV), DENV-2 strain 16681, DENV-3 strain H87 (NCPV) and DENV-4 strain H241 (NCPV) in a RT-qPCR assay. Therefore, Vero cells were infected with either DENV-1, or -2, or -3, or -4 in the presence or absence of test compounds. At day 3 post-infection, the cells were lysed and cell lysates were used to prepare cDNA of both a viral target (the 3′UTR of DENV; Table 2) and a cellular reference gene (1-actin, Table 2). Subsequently, a duplex real time PCR was performed on a Lightcycler480 instrument. The generated Cp value is inversely proportional to the amount of RNA expression of these targets. Inhibition of DENV replication by a test compound results in a shift of Cp's for the 3′UTR gene. On the other hand, if a test compound is toxic to the cells, a similar effect on β-actin expression will be observed. The comparative ΔΔCp method is used to calculate EC50, which is based on the relative gene expression of the target gene (3′UTR) normalized with the cellular housekeeping gene (β-actin). In addition, CC50 values are determined based on the Cp values acquired for the housekeeping gene β-actin.
(§2) The culture medium consisted of minimal essential medium supplemented with 2% of heat-inactivated fetal calf serum, 0.04% gentamycin (50 mg/mL) and 2 mM of L-glutamine. Vero cells, obtained from ECACC, were suspended in culture medium and 75 μL/well was added in 96-well plates (10000 cells/well), which already contain the antiviral compounds. […] In addition, each plate contains wells which are assigned as virus controls (containing cells and virus in the absence of compound) and cell controls (containing cells in the absence of virus and compound). Once the cells were added in the plates, the plates were incubated in a fully humidified incubator (37° C., 5% CO2) until the next day. Dengue viruses serotype-1, 2, 3 and 4 were diluted in order to obtain a Cp of ˜22-24 in the assay. Therefore, 25 μL of virus suspension was added to all the wells containing test compound and to the wells assigned as virus control. In parallel, 25 μL of culture medium was added to the cell controls. Next, the plates were incubated for 3 days in a fully humidified incubator (37° C., 5% CO2). After 3 days, the supernatant was removed from the wells and the cells were washed twice with ice-cold PBS (˜100 μL). The cell pellets within the 96-well plates were stored at −80° C. for at least 1 day. Next, RNA was extracted using the Cells-to-CT™ lysis kit, according to the manufacturer's guideline (Life Technologies). The cell lysates can be stored at −80° C. or immediately used in the reverse transcription step.
(§3) In preparation of the reverse transcription step, mix A (table 3A) was prepared and 7.57 μL/well was dispensed in a 96-well plate. After addition of 5 μL of the cell lysates, a five minute denaturation step at 75° C. was performed (table 3B). Afterwards, 7.43 μL of mix B was added (table 3C) and the reverse transcription step was initiated (table 3D) to generate cDNA.
(§4) Finally, a RT-qPCR mix was prepared, mix C (table 4A), and 22.02 μL/well was dispensed in 96-well LightCycler qPCR plates to which 3 μL of cDNA was added and the qPCR was performed according to the conditions in table 4B on a LightCycler 480.
(§5) Using the LightCycler software and an in-house LIMS system, dose response curves for each compound were calculated and the half maximal effective concentration (EC50) and the half maximal cytotoxic concentration (CC50) were determined (Tables 5-8).

DENV-2 strain 16681 = test: Tetravalent RT-qPCR assay, serotype 2; assay type: cell-based, Dengue virus; conditions: for EC50: Dengue virus, DENV2, 72 h, RT-qPCR serotype 2 16681, Vero cells, day 3; for SI: RT-qPCR serotype 2 16681
Experimental: as §1, §2, §3, §4, §5

DENV-3 strain H87 = test: Tetravalent RT-qPCR assay, serotype 3; assay type: cell-based, Dengue virus; conditions: for EC50: Dengue virus, DENV3, 72 h, RT-qPCR serotype 3 H87, Vero cells, day 3; for SI: RT-qPCR serotype 3 H87
Experimental: as §1, §2, §3, §4, §5

DENV-4 strain H241 = test: Tetravalent RT-qPCR assay, serotype 4; assay type: cell-based, Dengue virus; conditions: for EC50: Dengue virus; for SI: RT-qPCR serotype 4 H241
Experimental: as §1, §2, §3, §4, §5

in vitro [1] = assay type: cell-based; conditions: African green monkey, CC50
Experimental: as §1, §2, §3, §4, §5

in vitro [2] = conditions: African green monkey
Vero cells [3] = conditions: African green monkey
Vero cells [4] = test: in vitro; assay type: cell-based; conditions: African green monkey, 3 days
Experimental: as §1, §2, §3, §4, §5

[5] = DENV4, 72 h, RT-qPCR serotype 4 H241, Vero cells, day 3, read-out: EC50

COc1cc(NC(C(=O)N2CCc3ccc(C(F)(F)F)cc32)c2ccc(Cl)cc2OCCO)cc(S(C)(=O)=O)c1 (single isomer, unassigned) [Compound 4A]
EC50 (DENV-2 16681 strain): 0.41 nM
SI (DENV-2 16681 strain): 15000
EC50 (DENV-1 strain TC974#666): 0.75 nM
SI (DENV-1 strain TC974#666): >5470
EC50 (DENV-2 strain 16681): 0.45 nM
SI (DENV-2 strain 16681): 11700
EC50 (DENV-3 strain H87): 13 nM
SI (DENV-3 strain H87): >234
EC50 (DENV-4 strain H241; [5]): 44 nM
SI (DENV-4 strain H241): 69
CC50 at 3 days (in vitro [1]): > 2500 nM
CC50 (in vitro [2]): 6000 nM

COc1cc(NC(C(=O)N2CCc3ccc(C(F)(F)F)cc32)c2ccc(Cl)cc2OCCO)cc(S(C)(=O)=O)c1 (single isomer, unassigned) [Compound 4B]
EC50 (DENV-2 16681 strain): 16 nM
SI (DENV-2 16681 strain): 693
CC50 (Vero cells [3]): 11000 nM

COc1cc(NC(C(=O)N2CCc3ccc(OC(F)(F)F)cc32)c2ccc(F)cc2OCCO)cc(S(C)(=O)=O)c1 (single isomer, unassigned) [Compound 3B]
EC50 (DENV-2 16681 strain): 0.61 nM
SI (DENV-2 16681 strain): 16300
EC50 (DENV-1 strain TC974#666): 1.1 nM
SI (DENV-1 strain TC974#666): >3640
EC50 (DENV-2 strain 16681): 0.9 nM
SI (DENV-2 strain 16681): 4760
EC50 (DENV-3 strain H87): 13 nM
SI (DENV-3 strain H87): >444
EC50 (DENV-4 strain H241; [5]): 72 nM
SI (DENV-4 strain H241): >32
CC50 at 3 days (in vitro [1]): > 2500 nM
CC50 (Vero cells [3]): 8700 nM

COc1cc(NC(C(=O)N2CCc3ccc(C(F)(F)F)cc32)c2ccc(Cl)cc2OCCCC(=O)O)cc(S(C)(=O)=O)c1 (single isomer, unassigned) [Compound 7B]
EC50 (DENV-2 16681 strain): 0.25 nM
SI (DENV-2 16681 strain): 90600
EC50 (DENV-1 strain TC974#666): 0.13 nM
SI (DENV-1 strain TC974#666): >19200
EC50 (DENV-2 strain 16681): 0.19 nM
SI (DENV-2 strain 16681): >13500
EC50 (DENV-3 strain H87): 5.2 nM
SI (DENV-3 strain H87): >473
EC50 (DENV-4 strain H241; [5]): 24 nM
SI (DENV-4 strain H241): >186
CC50 at 3 days (in vitro [1]): > 2500 nM
CC50 (Vero cells [4]): > 2500 nM
CC50 (Vero cells [3]): 11000 nM

COc1cc(NC(C(=O)N2CCc3cc(OC)c(C(F)(F)F)cc32)c2ccc(F)cc2OCCO)cc(S(C)(=O)=O)c1 (single isomer, unassigned) [Compound 2B]
EC50 (DENV-2 16681 strain): 170 nM
SI (DENV-2 16681 strain): 105
CC50 (Vero cells [3]): 18000 nM

COc1cc(NC(C(=O)N2CCc3ccc(OC(F)(F)F)cc32)c2ccc(Cl)cc2OCCCC(=O)O)cc(S(C)(=O)=O)c1 (racemic) (as salt: HCl) (hydrate or solvate) [Compound 9, 4-(5-chloro-2-(1-((3-methoxy-5-(methylsulfonyl)phenyl)amino)-2-oxo-2-(6-(trifluoromethoxy)indolin-1-yl)ethyl)phenoxy)butanoic acid]
melting point: 155 °C

COc1cc(NC(C(=O)N2CCc3ccc(OC(F)(F)F)cc32)c2ccc(Cl)cc2OCCCC(=O)O)cc(S(C)(=O)=O)c1 (single isomer, unassigned) [Compound 9B]
EC50 (DENV-2 16681 strain): 0.15 nM
SI (DENV-2 16681 strain): 83000
EC50 (DENV-1 strain TC974#666): 0.1 nM
SI (DENV-1 strain TC974#666): >45500
EC50 (DENV-2 strain 16681): 0.068 nM
SI (DENV-2 strain 16681): >56500
EC50 (DENV-3 strain H87): 1.7 nM
SI (DENV-3 strain H87): >1840
EC50 (DENV-4 strain H241; [5]): 7.2 nM
SI (DENV-4 strain H241): 1390
CC50 at 3 days (in vitro [1]): > 2500 nM
CC50 (Vero cells [3]): 13000 nM

COc1cc(NC(C(=O)N2CCc3cc(OC)c(C(F)(F)F)cc32)c2ccc(Cl)cc2OCCO)cc(S(C)(=O)=O)c1 (single isomer, unassigned) [Compound 5B]
EC50 (DENV-2 16681 strain): 0.23 nM
SI (DENV-2 16681 strain): >16800
EC50 (DENV-1 strain TC974#666): 0.94 nM
SI (DENV-1 strain TC974#666): 8640
EC50 (DENV-2 strain 16681): 0.24 nM
SI (DENV-2 strain 16681): >17100
EC50 (DENV-3 strain H87): 6.7 nM
SI (DENV-3 strain H87): >752
EC50 (DENV-4 strain H241; [5]): 26 nM
SI (DENV-4 strain H241): 86
CC50 (Vero cells [3]): 8500 nM

COc1cc(NC(C(=O)N2CCc3ccc(OC(F)(F)F)cc32)c2ccc(Cl)cc2OCCO)cc(S(C)(=O)=O)c1 (single isomer, unassigned) [Compound 6A]
EC50 (DENV-2 16681 strain): 0.23 nM
SI (DENV-2 16681 strain): >12000
EC50 (DENV-1 strain TC974#666): 0.16 nM
SI (DENV-1 strain TC974#666): >41300
EC50 (DENV-2 strain 16681): 0.16 nM
SI (DENV-2 strain 16681): >12600
EC50 (DENV-3 strain H87): 2.6 nM
SI (DENV-3 strain H87): >1480
EC50 (DENV-4 strain H241; [5]): 26 nM
SI (DENV-4 strain H241): 119
CC50 at 3 days (in vitro [1]): > 2500 nM
CC50 (in vitro [2]): 7300 nM

COc1cc(NC(C(=O)N2CCc3ccc(C(F)(F)F)cc32)c2ccc(F)cc2OCCO)cc(S(C)(=O)=O)c1 (single isomer, unassigned) [Compound 1B]
EC50 (DENV-2 16681 strain): 1.4 nM
SI (DENV-2 16681 strain): >1980
EC50 (DENV-1 strain TC974#666): 1.5 nM
SI (DENV-1 strain TC974#666): >2860
EC50 (DENV-2 strain 16681): 1.1 nM
SI (DENV-2 strain 16681): 4670
EC50 (DENV-3 strain H87): 20 nM
SI (DENV-3 strain H87): >127
EC50 (DENV-4 strain H241; DENV4, Vero, 72 h): 130 nM
SI (DENV-4 strain H241): 23
CC50 at 3 days (in vitro [1]): > 2500 nM
CC50 (Vero cells [3]): 3400 nM

COc1cc(NC(C(=O)N2CCc3cc(OC)c(C(F)(F)F)cc32)c2ccc(Cl)cc2OCCCC(=O)O)cc(S(C)(=O)=O)c1 (single isomer, unassigned) [Compound 8B]
EC50 (DENV-2 16681 strain): 1.2 nM
SI (DENV-2 16681 strain): 6780
EC50 (DENV-1 strain TC974#666): 1.2 nM
SI (DENV-1 strain TC974#666): 10500
EC50 (DENV-2 strain 16681): 0.3 nM
SI (DENV-2 strain 16681): 54300
EC50 (DENV-3 strain H87): 19 nM
SI (DENV-3 strain H87): 796
EC50 (DENV-4 strain H241; [5]): 84 nM
SI (DENV-4 strain H241): 88
CC50 (Vero cells [3]): 14000 nM
